For one series, the target named is Activated CDC42 kinase 1 (Homo sapiens, UniProt Q07912). The series can be described thus: Inhibition of Ack1.
The test system of series [1] is T-cell. The series can be described thus: Inhibition of T cell activation in human mixed lymphocyte reaction. Type of series: functional, cell-based.
Series [2] concerns the target Tyrosine-protein kinase Lck (Homo sapiens, UniProt P06239). The series can be described thus: Inhibition of Lck.
The test system of series [3] is T-cell. The series can be described thus: Inhibition of anti-CD3/CD28-induced IL2 secretion in human T cells. In kind it is functional, cell-based.
A short description of series [4]: Volume of distribution at steady state in Sprague-Dawley rat at 1 mg/kg, iv. The arrangement: dose 1 mg/kg, route intravenous. The note with it: in vivo, read-out: Vdss. Type of series: ADME, organism-based.
Series [5] is described as follows: Half life in Sprague-Dawley rat at 1 mg/kg, iv. In kind it is ADME, organism-based. The arrangement: dose 1 mg/kg, route intravenous. Conditions: in vivo.
Series [6] is described as follows: Cmax in Sprague-Dawley rat at 5 mg/kg, po. Conditions: in vivo. The arrangement: dose 5 mg/kg, route oral. Type of series: ADME, organism-based.
A short description of series [7]: Clearance in Sprague-Dawley rat at 1 mg/kg, iv. In kind it is ADME, organism-based. The arrangement: dose 1 mg/kg, route intravenous. The note with it: in vivo.
A short description of series [8]: AUC (0 to infinity) in Sprague-Dawley rat at 5 mg/kg, po. Type of series: ADME, organism-based. The arrangement: time infinity, dose 5 mg/kg, route oral. The note with it: plasma.
Series [9] in a line: Oral bioavailability in Sprague-Dawley rat at 5 mg/kg. Type of series: ADME, organism-based. Conditions: in vivo.
The target of series [10] is Proto-oncogene tyrosine-protein kinase Src (Homo sapiens, UniProt P12931). The series can be described thus: Inhibition of Src.
The nature of series [11]: Inhibition of IGFR. The arrangement: species or system Homo sapiens.
Series [12] addresses Tyrosine-protein kinase JAK2 (Homo sapiens, UniProt O60674). The series can be described thus: Inhibition of Jak2.
Series [13] has as its target Epidermal growth factor receptor (Homo sapiens, UniProt P00533).
The target of the next series is Angiopoietin-1 receptor (Homo sapiens, UniProt Q02763). The series can be described thus: Inhibition of Tie2.
For series [14], the target named is T1, Tyrosine-protein kinase JAK3 (Homo sapiens, UniProt P52333).
T1 sequence (P52333 whole entry): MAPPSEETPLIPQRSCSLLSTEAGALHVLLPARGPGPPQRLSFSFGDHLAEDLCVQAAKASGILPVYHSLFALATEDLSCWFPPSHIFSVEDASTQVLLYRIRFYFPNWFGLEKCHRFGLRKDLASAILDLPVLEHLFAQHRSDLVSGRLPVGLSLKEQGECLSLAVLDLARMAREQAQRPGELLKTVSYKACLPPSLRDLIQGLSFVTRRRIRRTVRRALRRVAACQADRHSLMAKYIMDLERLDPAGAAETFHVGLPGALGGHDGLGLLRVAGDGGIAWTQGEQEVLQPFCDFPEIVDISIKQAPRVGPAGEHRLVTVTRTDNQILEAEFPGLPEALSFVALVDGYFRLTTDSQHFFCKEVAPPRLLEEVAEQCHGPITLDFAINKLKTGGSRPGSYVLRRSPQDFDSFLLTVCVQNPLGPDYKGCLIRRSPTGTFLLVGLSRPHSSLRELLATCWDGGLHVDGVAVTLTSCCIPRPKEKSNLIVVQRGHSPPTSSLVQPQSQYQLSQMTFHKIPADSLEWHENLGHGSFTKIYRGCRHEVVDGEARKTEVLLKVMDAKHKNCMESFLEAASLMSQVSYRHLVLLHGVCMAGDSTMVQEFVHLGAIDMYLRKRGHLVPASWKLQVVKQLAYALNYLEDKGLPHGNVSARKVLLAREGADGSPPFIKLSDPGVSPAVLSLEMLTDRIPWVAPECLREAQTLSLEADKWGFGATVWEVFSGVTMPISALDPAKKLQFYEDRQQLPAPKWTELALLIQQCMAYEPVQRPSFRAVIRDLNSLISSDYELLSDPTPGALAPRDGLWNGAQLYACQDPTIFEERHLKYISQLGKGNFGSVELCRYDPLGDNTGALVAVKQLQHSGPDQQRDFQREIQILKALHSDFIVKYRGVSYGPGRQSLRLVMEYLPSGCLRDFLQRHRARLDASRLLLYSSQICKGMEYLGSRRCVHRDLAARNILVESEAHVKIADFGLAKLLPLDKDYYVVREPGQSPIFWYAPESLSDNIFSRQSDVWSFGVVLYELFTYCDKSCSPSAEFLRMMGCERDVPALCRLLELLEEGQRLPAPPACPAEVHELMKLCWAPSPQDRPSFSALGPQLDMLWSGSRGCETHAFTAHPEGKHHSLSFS
The series can be described thus: Inhibition of Jak3.

Series [15] addresses Vascular endothelial growth factor receptor 2 (Homo sapiens, UniProt P35968). The series can be described thus: Inhibition of KDR.
Series [16] deals with T2, Tyrosine-protein kinase ZAP-70 (Homo sapiens, UniProt P43403).
T2 sequence (P43403 whole entry): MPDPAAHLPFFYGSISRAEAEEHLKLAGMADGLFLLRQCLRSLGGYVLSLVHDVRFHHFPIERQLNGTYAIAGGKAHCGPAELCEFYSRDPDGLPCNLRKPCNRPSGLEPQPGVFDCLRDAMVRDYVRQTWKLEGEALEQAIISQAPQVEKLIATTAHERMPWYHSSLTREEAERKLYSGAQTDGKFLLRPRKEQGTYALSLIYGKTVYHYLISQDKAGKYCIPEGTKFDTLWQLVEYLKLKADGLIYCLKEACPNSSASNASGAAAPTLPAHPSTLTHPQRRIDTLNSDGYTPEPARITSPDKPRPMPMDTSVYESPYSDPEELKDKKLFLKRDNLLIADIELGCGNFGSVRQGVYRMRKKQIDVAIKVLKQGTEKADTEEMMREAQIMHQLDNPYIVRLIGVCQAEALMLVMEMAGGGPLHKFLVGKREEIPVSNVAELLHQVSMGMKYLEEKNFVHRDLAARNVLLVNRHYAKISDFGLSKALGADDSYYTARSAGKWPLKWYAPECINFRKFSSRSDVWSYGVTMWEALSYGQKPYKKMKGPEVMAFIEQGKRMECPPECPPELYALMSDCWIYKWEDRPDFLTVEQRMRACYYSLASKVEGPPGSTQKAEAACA
The series can be described thus: Inhibition of ZAP70.

Where only a bound is given, the exact number is not on record here.

Usually IC50 stands for the point on the concentration scale where inhibition reaches its midpoint. The low end stands for greater potency in that assay, the high end for weaker potency in that assay. By half-life is commonly meant the time needed for the level to fall by half in the phase considered. For orientation: Cmax means the peak of the concentration-time curve. By clearance is commonly meant the rate of elimination divided by the concentration. Higher therefore signals a high capacity for elimination. Usually AUC(0-inf) stands for the area under the concentration-time curve extrapolated to infinity. A low value points to less exposure. As usually defined, the bioavailability is the share of a dose that reaches the circulation, judged against a reference dose that is usually intravenous.

Sequence of Tyrosine-protein kinase Lck (P06239 whole entry): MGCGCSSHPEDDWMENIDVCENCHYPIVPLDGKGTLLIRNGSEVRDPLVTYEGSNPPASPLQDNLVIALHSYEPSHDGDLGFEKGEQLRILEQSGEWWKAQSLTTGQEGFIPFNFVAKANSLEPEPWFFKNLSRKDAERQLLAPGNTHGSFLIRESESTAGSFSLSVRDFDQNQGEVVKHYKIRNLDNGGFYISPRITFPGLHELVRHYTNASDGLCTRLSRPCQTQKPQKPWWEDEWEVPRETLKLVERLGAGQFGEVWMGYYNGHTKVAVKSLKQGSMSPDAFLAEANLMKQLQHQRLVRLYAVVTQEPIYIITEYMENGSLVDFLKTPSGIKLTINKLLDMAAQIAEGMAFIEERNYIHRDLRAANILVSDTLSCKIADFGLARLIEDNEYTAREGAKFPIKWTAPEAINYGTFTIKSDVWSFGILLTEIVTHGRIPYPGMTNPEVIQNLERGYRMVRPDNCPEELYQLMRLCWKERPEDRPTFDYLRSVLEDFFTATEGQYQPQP
Sequence of Activated CDC42 kinase 1 (Q07912 whole entry): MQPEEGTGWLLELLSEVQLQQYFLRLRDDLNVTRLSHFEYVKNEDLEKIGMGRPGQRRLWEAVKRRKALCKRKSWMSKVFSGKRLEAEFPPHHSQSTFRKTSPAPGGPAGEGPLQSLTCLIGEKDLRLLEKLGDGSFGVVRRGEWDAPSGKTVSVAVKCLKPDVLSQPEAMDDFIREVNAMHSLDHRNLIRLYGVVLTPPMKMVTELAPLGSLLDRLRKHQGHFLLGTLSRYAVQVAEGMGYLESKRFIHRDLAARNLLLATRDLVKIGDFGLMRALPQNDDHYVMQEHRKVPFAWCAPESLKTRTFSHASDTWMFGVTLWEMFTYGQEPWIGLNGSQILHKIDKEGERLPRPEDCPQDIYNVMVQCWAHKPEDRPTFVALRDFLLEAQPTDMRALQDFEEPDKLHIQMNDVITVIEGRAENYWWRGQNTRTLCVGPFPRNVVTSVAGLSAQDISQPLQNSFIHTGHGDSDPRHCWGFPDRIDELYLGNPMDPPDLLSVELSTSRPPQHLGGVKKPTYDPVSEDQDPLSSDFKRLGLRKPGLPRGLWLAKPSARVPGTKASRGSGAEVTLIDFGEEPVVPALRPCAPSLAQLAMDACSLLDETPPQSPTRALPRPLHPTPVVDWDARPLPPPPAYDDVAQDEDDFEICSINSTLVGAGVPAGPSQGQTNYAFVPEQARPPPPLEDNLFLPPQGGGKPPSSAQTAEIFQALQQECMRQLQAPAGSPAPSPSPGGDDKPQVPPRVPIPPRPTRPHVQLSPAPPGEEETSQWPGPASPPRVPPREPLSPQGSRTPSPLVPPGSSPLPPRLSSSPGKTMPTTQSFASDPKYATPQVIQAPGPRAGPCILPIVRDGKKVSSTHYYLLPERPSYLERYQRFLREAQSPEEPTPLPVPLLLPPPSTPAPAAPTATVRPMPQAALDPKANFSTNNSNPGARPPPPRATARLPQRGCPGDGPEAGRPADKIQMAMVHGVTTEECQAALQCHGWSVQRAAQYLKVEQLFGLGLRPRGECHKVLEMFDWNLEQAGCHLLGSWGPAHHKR
Sequence of Vascular endothelial growth factor receptor 2 (P35968 whole entry): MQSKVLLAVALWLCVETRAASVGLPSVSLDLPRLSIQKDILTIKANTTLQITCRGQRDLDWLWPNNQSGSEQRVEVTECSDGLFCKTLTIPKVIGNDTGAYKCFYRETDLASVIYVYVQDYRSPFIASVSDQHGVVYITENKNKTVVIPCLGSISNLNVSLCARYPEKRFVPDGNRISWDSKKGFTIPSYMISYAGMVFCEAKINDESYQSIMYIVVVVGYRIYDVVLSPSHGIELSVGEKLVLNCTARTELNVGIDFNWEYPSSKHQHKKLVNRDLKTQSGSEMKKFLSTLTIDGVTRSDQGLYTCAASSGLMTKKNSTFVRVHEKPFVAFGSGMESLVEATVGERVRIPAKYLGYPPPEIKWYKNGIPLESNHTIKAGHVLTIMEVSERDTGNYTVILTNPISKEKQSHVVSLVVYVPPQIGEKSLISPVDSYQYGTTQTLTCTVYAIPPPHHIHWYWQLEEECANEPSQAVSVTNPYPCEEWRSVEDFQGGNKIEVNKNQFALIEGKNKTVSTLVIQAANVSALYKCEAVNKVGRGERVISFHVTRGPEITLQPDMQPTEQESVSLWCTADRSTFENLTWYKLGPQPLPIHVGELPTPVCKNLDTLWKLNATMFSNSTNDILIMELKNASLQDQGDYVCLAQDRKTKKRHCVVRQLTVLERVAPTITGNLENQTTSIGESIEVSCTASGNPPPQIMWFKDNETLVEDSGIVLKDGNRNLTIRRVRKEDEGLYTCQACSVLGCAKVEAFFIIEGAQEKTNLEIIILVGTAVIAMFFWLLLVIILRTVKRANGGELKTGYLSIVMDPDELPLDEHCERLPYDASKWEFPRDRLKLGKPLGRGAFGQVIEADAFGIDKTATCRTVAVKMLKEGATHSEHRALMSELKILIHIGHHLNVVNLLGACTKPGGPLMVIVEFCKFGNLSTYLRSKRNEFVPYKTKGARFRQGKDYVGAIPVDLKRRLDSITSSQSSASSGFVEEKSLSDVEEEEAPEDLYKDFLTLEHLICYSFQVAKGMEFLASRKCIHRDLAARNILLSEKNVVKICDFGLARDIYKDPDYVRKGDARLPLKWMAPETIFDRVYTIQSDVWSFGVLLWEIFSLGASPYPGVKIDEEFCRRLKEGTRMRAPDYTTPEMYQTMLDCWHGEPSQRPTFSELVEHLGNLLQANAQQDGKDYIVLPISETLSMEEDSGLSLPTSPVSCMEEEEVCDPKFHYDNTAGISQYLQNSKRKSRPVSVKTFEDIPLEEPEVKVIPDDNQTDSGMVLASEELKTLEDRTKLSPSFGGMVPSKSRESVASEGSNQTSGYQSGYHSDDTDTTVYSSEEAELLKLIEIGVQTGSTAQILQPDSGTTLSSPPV
Sequence of Angiopoietin-1 receptor (Q02763 whole entry): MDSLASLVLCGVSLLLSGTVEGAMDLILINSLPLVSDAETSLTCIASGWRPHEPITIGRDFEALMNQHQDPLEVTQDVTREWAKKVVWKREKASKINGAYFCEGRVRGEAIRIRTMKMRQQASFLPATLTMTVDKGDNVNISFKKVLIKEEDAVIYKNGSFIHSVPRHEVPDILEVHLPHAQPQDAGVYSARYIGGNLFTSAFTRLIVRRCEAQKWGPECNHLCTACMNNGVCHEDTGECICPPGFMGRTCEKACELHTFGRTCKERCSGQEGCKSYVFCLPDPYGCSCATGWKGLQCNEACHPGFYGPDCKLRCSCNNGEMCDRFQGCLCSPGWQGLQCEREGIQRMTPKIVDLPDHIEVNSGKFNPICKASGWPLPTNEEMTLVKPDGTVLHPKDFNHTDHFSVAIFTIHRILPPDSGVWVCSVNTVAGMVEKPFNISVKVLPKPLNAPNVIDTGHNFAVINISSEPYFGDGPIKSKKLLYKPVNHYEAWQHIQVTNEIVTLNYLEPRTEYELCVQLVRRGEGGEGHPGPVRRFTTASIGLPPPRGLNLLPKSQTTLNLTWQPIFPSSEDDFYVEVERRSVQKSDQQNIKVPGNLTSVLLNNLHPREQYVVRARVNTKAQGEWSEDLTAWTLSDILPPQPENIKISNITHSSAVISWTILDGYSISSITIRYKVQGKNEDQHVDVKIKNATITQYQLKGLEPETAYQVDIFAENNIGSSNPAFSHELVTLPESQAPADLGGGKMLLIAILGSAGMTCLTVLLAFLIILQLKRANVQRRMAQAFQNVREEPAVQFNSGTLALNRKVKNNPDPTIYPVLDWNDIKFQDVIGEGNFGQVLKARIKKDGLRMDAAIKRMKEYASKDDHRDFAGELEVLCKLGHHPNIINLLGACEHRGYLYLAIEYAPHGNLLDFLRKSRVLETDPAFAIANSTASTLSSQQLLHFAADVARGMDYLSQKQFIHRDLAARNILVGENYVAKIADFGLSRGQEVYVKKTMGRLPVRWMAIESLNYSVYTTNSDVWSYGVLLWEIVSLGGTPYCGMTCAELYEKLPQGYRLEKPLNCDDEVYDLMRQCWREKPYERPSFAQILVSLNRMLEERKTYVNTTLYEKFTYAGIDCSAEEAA
Sequence of Proto-oncogene tyrosine-protein kinase Src (P12931 2-536 limits assumed): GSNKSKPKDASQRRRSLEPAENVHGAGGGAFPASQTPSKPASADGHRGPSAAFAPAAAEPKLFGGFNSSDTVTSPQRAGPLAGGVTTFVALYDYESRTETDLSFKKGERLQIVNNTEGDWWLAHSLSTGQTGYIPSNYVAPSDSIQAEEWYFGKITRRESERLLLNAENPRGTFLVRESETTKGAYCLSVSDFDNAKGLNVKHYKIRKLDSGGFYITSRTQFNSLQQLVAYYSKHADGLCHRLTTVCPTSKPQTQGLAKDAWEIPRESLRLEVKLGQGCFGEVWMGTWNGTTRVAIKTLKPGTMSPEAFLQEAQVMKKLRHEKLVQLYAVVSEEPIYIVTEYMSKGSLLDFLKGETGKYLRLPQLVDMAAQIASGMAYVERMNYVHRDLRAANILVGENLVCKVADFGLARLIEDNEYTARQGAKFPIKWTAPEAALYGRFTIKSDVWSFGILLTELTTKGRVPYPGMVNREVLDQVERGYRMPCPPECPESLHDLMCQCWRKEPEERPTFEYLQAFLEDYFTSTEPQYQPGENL

For `c1ccc(-c2oc3ncnc(NC[C@H]4CCCO4)c3c2-c2ccccc2)cc1`, the IC50 against Activated CDC42 kinase 1 was 523 nM; in the series with T-cell [1], 2130 nM; in series [2], 1210 nM.

Consider `c1ccc(-c2oc3ncnc(NC[C@@H]4CCCO4)c3c2-c2ccccc2)cc1`, for which the half-inhibitory concentration (IC50) with T-cell [3] turned out to be 2410 nM; against Activated CDC42 kinase 1 it was 24 nM; in the series with T-cell [1] it was 8950 nM; in series [2], 122 nM.

For `c1ccc(-c2oc3ncnc(NCCN4CCNCC4)c3c2-c2ccccc2)cc1`, the values for the half-inhibitory concentration (IC50) in the series on T-cell [3], at Activated CDC42 kinase 1 and with T-cell [1] were 690 nM, 181 nM and 1710 nM, respectively. In series [4], the Vd was 2.77 L/kg. The half-life in [5] was 2.37 h. Moreover, the Cmax in series [6] came out at 180 ng/mL. The same compound gave a clearance in [7] of 14.8 mL/min/kg. The compound further yielded an AUC(0-inf) in [8] of 1040 ng·h/mL. The compound also returned a bioavailability in series [9] of 15%.

Regarding `c1ccc(-c2c(-c3ccc(OCCN4CCCC4)cc3)oc3ncnc(NCCN4CCNCC4)c23)cc1`, the IC50 with T-cell [3] was 430 nM; in series [10], 45 nM; in series [11], 3150 nM; in series [12] it was above 8330 nM; against Activated CDC42 kinase 1 it was 98 nM; in series [13], 397 nM. The IC50 is above 25000 nM against Angiopoietin-1 receptor; 227 nM in the series on T-cell [1]; 960 nM in series [14]; 3100 nM in series [15]; 9 nM in series [2]; 992 nM in series [16].

In the case of `c1ccc(-c2c(-c3ccc(OCCN4CCCC4)cc3)oc3ncnc(NCCC4CCNCC4)c23)cc1`, the IC50 worked out at 332 nM at Activated CDC42 kinase 1, 2450 nM in the series on T-cell [1] and 14 nM in [2].

`CN(C)CCOc1ccc(-c2oc3ncnc(NC[C@@H]4CCCO4)c3c2-c2ccccc2)cc1`: the half-inhibitory concentration (IC50) is 119 nM with T-cell [3], 11 nM on Activated CDC42 kinase 1, 464 nM in the series on T-cell [1] and 6 nM in series [2].

Regarding `c1ccc(-c2c(-c3ccc(OCCN4CCCC4)cc3)oc3ncnc(NC[C@@H]4CCCO4)c23)cc1`, the IC50 turned out to be 435 nM with T-cell [3], 16 nM on Activated CDC42 kinase 1, 670 nM with T-cell [1] and 11 nM in series [2].

Take `c1ccc(CCNc2ncnc3oc(-c4ccc(OCCN5CCCC5)cc4)c(-c4ccccc4)c23)cc1`: the IC50 in the series on T-cell [3] came to 5720 nM; on Activated CDC42 kinase 1, 1 nM; with T-cell [1], 1670 nM; in [2], 5 nM.

Turning to `CN1CCN(Cc2ccc(-c3oc4ncnc(NC[C@@H]5CCCO5)c4c3-c3ccccc3)cc2)CC1`, the IC50 in the series with T-cell [3] was 293 nM; on Activated CDC42 kinase 1, 7 nM; with T-cell [1], 337 nM; in series [2], 6 nM.

Take `CC(C)Nc1ncnc2oc(-c3ccc(OCCN4CCCC4)cc3)c(-c3ccccc3)c12`: the IC50 in the series with T-cell [3] was 199 nM; in [10], 914 nM; in series [11], 1490 nM; in series [12], 4890 nM; at Activated CDC42 kinase 1, 78 nM; in series [13], 1030 nM. Moreover, the half-inhibitory concentration (IC50) is above 8330 nM at Angiopoietin-1 receptor; 533 nM with T-cell [1]; 1430 nM in series [14]; 537 nM in [15]; 36 nM in series [2]; 3270 nM in series [16].

On to `CCN1CCN(C(=O)c2ccc(-c3oc4ncnc(NC[C@@H]5CCCO5)c4c3-c3ccccc3)cc2)CC1`, for which the 50% inhibitory concentration (IC50) was 2420 nM with T-cell [3], 13 nM against Activated CDC42 kinase 1, 437 nM in the series on T-cell [1] and 11 nM in series [2].

For `c1ccc(-c2c(-c3ccc(N4CCOCC4)cc3)oc3ncnc(NCCN4CCNCC4)c23)cc1`, the concentration for half-maximal inhibition (IC50) against Activated CDC42 kinase 1 was 17 nM; with T-cell [1], 227 nM; in series [2], 11 nM.

Regarding `CN1CCOc2cc(-c3oc4ncnc(NCCN5CCNCC5)c4c3-c3ccccc3)ccc21`, the half-maximal inhibitory concentration (IC50) on Activated CDC42 kinase 1 was 97 nM; in the series on T-cell [1], 3080 nM; in series [2] it was 42 nM.

As to `c1ccc(-c2c(-c3ccc(CN4CCOCC4)cc3)oc3ncnc(NCCN4CCNCC4)c23)cc1`, the concentration for half-maximal inhibition (IC50) at Activated CDC42 kinase 1 worked out at 91 nM; in the series on T-cell [1], 138 nM; in series [2] it was 27 nM.

For `O=C(c1ccc(-c2oc3ncnc(NCCN4CCNCC4)c3c2-c2ccccc2)cc1)N1CCCCC1`, the IC50 on Activated CDC42 kinase 1 worked out at 85 nM; with T-cell [1], 121 nM; in series [2], 22 nM.

Consider `CN(C)CCOc1ccc(-c2oc3ncnc(NCCN4CCNCC4)c3c2-c2ccccc2)cc1`, for which the concentration for half-maximal inhibition (IC50) came to 468 nM with T-cell [3], 148 nM at Activated CDC42 kinase 1, 360 nM in the series with T-cell [1] and 14 nM in [2].

As for `COc1cc(-c2oc3ncnc(NCCN4CCNCC4)c3c2-c2ccccc2)ccc1OCCN1CCCCC1`, the concentration for half-maximal inhibition (IC50) was found to be 2630 nM in the series on T-cell [3], 586 nM against Activated CDC42 kinase 1, 3220 nM with T-cell [1] and 22 nM in [2].

With `CC(C)(C)Nc1ncnc2oc(-c3ccc(OCCN4CCCC4)cc3)c(-c3ccccc3)c12`, the IC50 was 3260 nM with T-cell [3], 650 nM against Activated CDC42 kinase 1, 2380 nM in the series with T-cell [1] and 83 nM in series [2].

In the case of `COc1cc(-c2oc3ncnc(NC[C@@H]4CCCO4)c3c2-c2ccccc2)ccc1OCCN1CCCCC1`, the IC50 stood at 193 nM in the series on T-cell [3], 38 nM against Activated CDC42 kinase 1, 825 nM in the series with T-cell [1] and 8 nM in series [2].

The values are drawn from ChEMBL document CHEMBL1139142, “Discovery of 4-amino-5,6-biaryl-furo[2,3-d]pyrimidines as inhibitors of Lck: development of an expedient and divergent synthetic route and preliminary SAR” (Bioorg Med Chem Lett, 2007).
